Source: patent US20080306038A1, “Compositions and Methods for Modulating Inflammation Using Fluoroquinolones” (priority 2007, published 2008)

Key:
Type in all cases: cell-based, human
Fractalkine = assay: LPS-stimulated fractalkine production in THP-1 monocytes (multiplex Luminex); settings: 0.1-30 μg/mL, 18 hours
Experimental: (§1) Human THP-1 monocytes (ATCC TIB 202) were purchased from American Type Culture Collection (Manassas, Va.) and maintained in RPMI 1640 medium (Invitrogen, Carlsbad, Calif.) supplemented with 10% fetal bovine serum (“FBS”, Invitrogen, Carlsbad, Calif.), 100 U/mL of penicillin (Invitrogen, Carlsbad, Calif.), and 100 μg/mL of streptomycin (Invitrogen, Carlsbad, Calif.) at 37° C. in a humidified incubator with 5% CO2. THP-1 cells were pre-cultured in RPMI 1640 medium containing 10% dialyzed serum for 24 h. […] Each treatment was performed in triplicate.
(§2) Samples were analyzed using multiplex bead technology, which utilizes microspheres as the solid support for immunoassays and allows the analysis of all cytokines from each sample (D. A. Vignali, J. Immunol. Methods, Vol. 243, 243-255 (2000)). Sixteen cytokines were measured according to the manufacturer's instructions. Briefly, 50 μL of medium samples were incubated with antibody-coated capture beads overnight at 4° C. […] Samples were analyzed using Luminex 200™ (Luminex, Austin, Tex.) and Beadview software v1.0 (Upstate Cell Signaling Solutions, Temecula, Calif.). Standard curves of known concentrations of recombinant human cytokines were used to convert fluorescence units (median fluorescence intensity) to cytokine concentration in pg/mL. […]
(§3) All cytokine concentrations (pg/mL) were expressed as mean ±standard deviation. […]

G-CSF = assay: LPS-stimulated G-CSF production in THP-1 monocytes (multiplex Luminex); set-up: key to Inhibition of LPS-stimulated G-CSF production: “X” signifies significant inhibition at a particular concentration
Experimental: as §1
(§4) Samples were analyzed using multiplex bead technology, which utilizes microspheres as the solid support for immunoassays and allows the analysis of all cytokines from each sample (D. A. Vignali, J. Immunol. Methods, Vol. 243, 243-255 (2000)). Sixteen cytokines were measured according to the manufacturer's instructions. Briefly, 50 μL of medium samples were incubated with antibody-coated capture beads overnight at 4° C. Washed beads were further incubated with biotin-labelled anti-human cytokine antibodies for 2 h at room temperature followed by incubation with streptavidin-phycoerythrin for 30 min. Samples were analyzed using Luminex 200™ (Luminex, Austin, Tex.) and Beadview software v1.0 (Upstate Cell Signaling Solutions, Temecula, Calif.). Standard curves of known concentrations of recombinant human cytokines were used to convert fluorescence units (median fluorescence intensity) to cytokine concentration in pg/mL. Only the linear portions of the standard curves were used to quantify cytokine concentrations, and in instances where the fluorescence reading exceeded the linear range of the standard curve, an appropriate dilution was performed to ensure that the concentration was in the linear portion of the curve.
(§5) All cytokine concentrations (pg/mL) were expressed as mean ±standard deviation. Statistical analysis comparing effects of treatment across groups was performed using a one-way ANOVA with a Dunnett's post-hoc comparison test using either vehicle control or LPS treatment as references. For all assays, p≦0.05 was predetermined as the criterion of statistical significance.

GM-CSF = assay: LPS-stimulated GM-CSF production in THP-1 monocytes (multiplex Luminex); set-up: key to Inhibition of LPS-stimulated GM-CSF production: “X” signifies significant inhibition at a particular concentration
Experimental: as §1, §4
(§6) All cytokine concentrations (pg/mL) were expressed as mean ±standard deviation. Statistical analysis comparing effects of treatment across groups was performed using a one-way ANOVA with a Dunnett's post-hoc comparison test using either vehicle control or LPS treatment as references. […]

IL-12p40 = assay: LPS-stimulated IL-12p40 production in THP-1 monocytes (multiplex Luminex); set-up: key to Inhibition of LPS-stimulated IL-12p40 production: “X” signifies significant inhibition at a particular concentration; settings: 18 hours
Experimental: as §1, §4, §5

IL-1α = assay: LPS-stimulated IL-1α production in THP-1 monocytes (multiplex Luminex); set-up: key to Inhibition of LPS-stimulated IL-1α production: “X” signifies significant inhibition at a particular concentration
Experimental: as §1, §4, §5

IL-1β = assay: LPS-stimulated IL-1β production in THP-1 monocytes (multiplex Luminex); set-up: key to Inhibition of LPS-stimulated IL-1β production: “X” signifies significant inhibition at a particular concentration
Experimental: as §1, §4, §5

IL-1ra = assay: LPS-stimulated IL-1ra production in THP-1 monocytes (multiplex Luminex); set-up: key to Inhibition of LPS-stimulated IL-1ra production: “X” signifies significant inhibition at a particular concentration; settings: for Inhibition of LPS-stimulated IL-1ra production: 18 hours
Experimental: as §1, §4, §5

IL-6 = assay: LPS-stimulated IL-6 production in THP-1 monocytes (multiplex Luminex); set-up: key to Inhibition of LPS-stimulated IL-6 production: “X” signifies significant inhibition at a particular concentration
Experimental: as §1, §4, §5

IL-8 = assay: LPS-stimulated IL-8 production in THP-1 monocytes (multiplex Luminex); set-up: key to Inhibition of LPS-stimulated IL-8 production: “X” signifies significant inhibition at a particular concentration
Experimental: as §1, §4, §5

IP-10 = assay: LPS-stimulated IP-10 production in THP-1 monocytes (multiplex Luminex); set-up: key to Inhibition of LPS-stimulated IP-10 production: “X” signifies significant inhibition at a particular concentration
Experimental: as §1, §4, §5

MCP-1 = assay: LPS-stimulated MCP-1 production in THP-1 monocytes (multiplex Luminex); set-up: key to Inhibition of LPS-stimulated MCP-1 production: “X” signifies significant inhibition at a particular concentration
Experimental: as §1, §4, §6

MIP-1α = assay: LPS-stimulated MIP-1α production in THP-1 monocytes (multiplex Luminex); set-up: key to Inhibition of LPS-stimulated MIP-1α production: “X” signifies significant inhibition at a particular concentration
Experimental: as §1, §4, §5

RANTES = assay: LPS-stimulated RANTES production in THP-1 monocytes (multiplex Luminex); settings: 0.1-30 μg/mL, 18 hours
Experimental: as §1, §2, §3

VEGF = assay: LPS-stimulated VEGF production in THP-1 monocytes (multiplex Luminex); set-up: key to Inhibition of LPS-stimulated VEGF production: “X” signifies significant inhibition at a particular concentration; settings: for Inhibition of LPS-stimulated VEGF production: 18 hours, THP-1 monocytes
Experimental: as §1, §4, §5

[1] = 1 μg/mL compound + 10 μg/mL LPS, 18 hours, THP-1 monocytes
[2] = 10 μg/mL compound + 10 μg/mL LPS, 18 hours, THP-1 monocytes
[3] = 30 μg/mL compound + 10 μg/mL LPS, 18 hours, THP-1 monocytes
[4] = FIG. 2, LPS-stimulated THP-1 monocytes
[5] = LPS-induced, THP-1 monocytes, 18 hours
[6] = 30 μg/mL compound + 10 μg/mL LPS

## N[C@@H]1CCCCN(c2c(F)cc3c(=O)c(C(=O)O)cn(C4CC4)c3c2Cl)C1 [Compound Having Formula IV]
Fractalkine
  Effect on LPS-stimulated production of fractalkine: Neither moxifloxacin nor compound having Formula IV altered
G-CSF; [1]
  Inhibition of LPS-stimulated G-CSF production: X
G-CSF; [2]
  Inhibition of LPS-stimulated G-CSF production: X
G-CSF; [3]
  Inhibition of LPS-stimulated G-CSF production: X
G-CSF; [4]
  Relative potency of compound having Formula IV and moxifloxacin on G-CSF: better potency than moxifloxacin
G-CSF; LPS-induced, THP-1 monocytes
  Concentration with significant inhibitory effect on G-CSF: 1000 ng/mL
G-CSF; [5]
  Concentration at which a significant inhibitory effect was observed for G-CSF: 1 µg/mL
GM-CSF; [3]
  Inhibition of LPS-stimulated GM-CSF production: X
GM-CSF; FIG. 1, THP-1 monocytes
  Comparison of moxifloxacin and compound having Formula IV, effect on GM-CSF after LPS stimulation: comparable effects
GM-CSF; [5]
  Concentration at which a significant inhibitory effect was observed for GM-CSF: 30 µg/mL
IL-12p40; [6]
  Inhibition of LPS-stimulated IL-12p40 production: X
IL-12p40; LPS-induced
  Concentration at which a significant inhibitory effect was observed for IL-12p40: 30 µg/mL
IL-1α; 0.1 μg/mL compound + 10 μg/mL LPS, 18 hours, THP-1 monocytes
  Inhibition of LPS-stimulated IL-1α production: X
IL-1α; [1]
  Inhibition of LPS-stimulated IL-1α production: X
IL-1α; [2]
  Inhibition of LPS-stimulated IL-1α production: X
IL-1α; [3]
  Inhibition of LPS-stimulated IL-1α production: X
IL-1α; [4]
  Relative potency of compound having Formula IV and moxifloxacin on IL-1α: better potency than moxifloxacin
IL-1α; LPS-induced, THP-1 monocytes
  Lowest concentration with significant inhibitory effect on IL-1α: 100 ng/mL
IL-1α; [5]
  Concentration at which a significant inhibitory effect was observed for IL-1α: 0.1 µg/mL
IL-1β; [3]
  Inhibition of LPS-stimulated IL-1β production: X
IL-1β; FIG. 1, THP-1 monocytes
  Comparison of moxifloxacin and compound having Formula IV, effect on IL-1β after LPS stimulation: comparable effects
IL-1β; [5]
  Concentration at which a significant inhibitory effect was observed for IL-1β: 30 µg/mL
IL-1ra; 1 μg/mL compound + 10 μg/mL LPS, THP-1 monocytes
  Inhibition of LPS-stimulated IL-1ra production: X
IL-1ra; 10 μg/mL compound + 10 μg/mL LPS, THP-1 monocytes
  Inhibition of LPS-stimulated IL-1ra production: X
IL-1ra; 30 μg/mL compound + 10 μg/mL LPS, THP-1 monocytes
  Inhibition of LPS-stimulated IL-1ra production: X
IL-1ra; [4]
  Relative potency of compound having Formula IV and moxifloxacin on IL-1ra: better potency than moxifloxacin
IL-1ra; LPS-induced, THP-1 monocytes
  Concentration with significant inhibitory effect on IL-1ra: 1000 ng/mL
IL-6; [1]
  Inhibition of LPS-stimulated IL-6 production: X
IL-6; [2]
  Inhibition of LPS-stimulated IL-6 production: X
IL-6; [3]
  Inhibition of LPS-stimulated IL-6 production: X
IL-6; [4]
  Relative potency of compound having Formula IV and moxifloxacin on IL-6: better potency than moxifloxacin
IL-6; LPS-induced, THP-1 monocytes
  Concentration with significant inhibitory effect on IL-6: 1000 ng/mL
IL-6; [5]
  Concentration at which a significant inhibitory effect was observed for IL-6: 1 µg/mL
IL-8; [3]
  Inhibition of LPS-stimulated IL-8 production: X
IL-8; FIG. 1, THP-1 monocytes
  Comparison of moxifloxacin and compound having Formula IV, effect on IL-8 after LPS stimulation: comparable effects
IL-8; [5]
  Concentration at which a significant inhibitory effect was observed for IL-8: 30 µg/mL
IP-10; [3]
  Inhibition of LPS-stimulated IP-10 production: X
IP-10; FIG. 1, THP-1 monocytes
  Comparison of moxifloxacin and compound having Formula IV, effect on IP-10 after LPS stimulation: comparable effects
IP-10; [5]
  Concentration at which a significant inhibitory effect was observed for IP-10: 30 µg/mL
MCP-1; [3]
  Inhibition of LPS-stimulated MCP-1 production: X
MCP-1; FIG. 1, THP-1 monocytes
  Comparison of moxifloxacin and compound having Formula IV, effect on MCP-1 after LPS stimulation: comparable effects
MCP-1; [5]
  Concentration at which a significant inhibitory effect was observed for MCP-1: 30 µg/mL
MIP-1α; [3]
  Inhibition of LPS-stimulated MIP-1α production: X
MIP-1α; FIG. 1, THP-1 monocytes
  Comparison of moxifloxacin and compound having Formula IV, effect on MIP-1α after LPS stimulation: comparable effects
MIP-1α; [5]
  Concentration at which a significant inhibitory effect was observed for MIP-1α: 30 µg/mL
RANTES
  Effect on LPS-stimulated production of RANTES: Neither moxifloxacin nor compound having Formula IV altered
VEGF; 10 μg/mL compound + 10 μg/mL LPS
  Inhibition of LPS-stimulated VEGF production: X
VEGF; [6]
  Inhibition of LPS-stimulated VEGF production: X
VEGF; [4]
  Relative potency of compound having Formula IV and moxifloxacin on VEGF: better potency than moxifloxacin
